Assay results from ChEMBL document CHEMBL1146635 (Bioorg Med Chem Lett, 2003).

system: Human immunodeficiency virus 1; experiment: Viral spread inhibitory concentration against HIV-1 strain Q-60C in MT-4 human T-lymphoid cells; assay type: functional; conditions: Human immunodeficiency virus 1, T-lymphoid; read-out: CIC95

Point of comparison: `O=C(N[C@H]1c2ccccc2OC[C@H]1O)[C@H](Cc1cccnc1)C[C@H](O)CN1CCN(Cc2ccn(-c3ccccc3C(F)(F)F)c2)C[C@H]1C(=O)NCC(F)(F)F`, IC95 500 nM. Against it:
- O=C(N[C@H]1c2ccccc2OC[C@H]1O)[C@H](Cc1cccnc1)C[C@H](O)CN1CCN(Cc2ccn(-c3ccccc3)c2)C[C@H]1C(=O)NCC(F)(F)F — lower, ≤ 8 nM
- Cc1cccc(-n2ccc(CN3CCN(C[C@@H](O)C[C@@H](Cc4cccnc4)C(=O)N[C@H]4c5ccccc5OC[C@H]4O)[C@H](C(=O)NCC(F)(F)F)C3)c2)c1 — lower, ≤ 8 nM
- N#Cc1ccccc1-n1ccc(CN2CCN(C[C@@H](O)C[C@@H](Cc3cccnc3)C(=O)N[C@H]3c4ccccc4OC[C@H]3O)[C@H](C(=O)NCC(F)(F)F)C2)c1 — 8.1-fold lower, 62 nM
- O=C(N[C@H]1c2ccccc2OC[C@H]1O)[C@H](Cc1cccnc1)C[C@H](O)CN1CCN(Cc2ccc(-c3ccccc3)o2)C[C@H]1C(=O)NCC(F)(F)F — lower, ≤ 8 nM
- CC(C)(C)NC(=O)[C@@H]1CN(Cc2cccnc2)CCN1C[C@@H](O)C[C@@H](Cc1ccccc1)C(=O)N[C@H]1c2ccccc2C[C@H]1O.O — higher, > 1000 nM

target: Cytochrome P450 2D6 (Homo sapiens, UniProt P10635); experiment: In vitro inhibition of Cytochrome P450 2D6; assay type: ADME; conditions: not given
Sequence (P10635 whole entry): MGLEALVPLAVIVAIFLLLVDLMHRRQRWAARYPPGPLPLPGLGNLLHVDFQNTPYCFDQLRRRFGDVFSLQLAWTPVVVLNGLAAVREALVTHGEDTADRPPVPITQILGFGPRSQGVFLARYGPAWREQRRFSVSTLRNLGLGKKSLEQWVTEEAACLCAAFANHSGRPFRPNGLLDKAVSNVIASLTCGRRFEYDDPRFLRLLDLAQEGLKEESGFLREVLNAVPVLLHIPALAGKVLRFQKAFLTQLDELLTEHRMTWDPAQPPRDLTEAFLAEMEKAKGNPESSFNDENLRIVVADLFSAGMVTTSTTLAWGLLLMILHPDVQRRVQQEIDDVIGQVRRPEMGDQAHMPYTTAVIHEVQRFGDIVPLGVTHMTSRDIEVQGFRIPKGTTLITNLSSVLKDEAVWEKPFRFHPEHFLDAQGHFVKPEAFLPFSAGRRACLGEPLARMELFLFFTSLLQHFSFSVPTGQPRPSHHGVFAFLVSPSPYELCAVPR

Compound `O=C(N[C@H]1c2ccccc2OC[C@H]1O)[C@H](Cc1cccnc1)C[C@H](O)CN1CCN(Cc2ccn(-c3ccccc3)c2)C[C@H]1C(=O)NCC(F)(F)F` has an IC50 of 12000 nM.

system: not listed separately; experiment: Area under curve determined in dog at a dose of 10 mg/kg by oral administration along with […] (10 mg/kg); conditions: in vivo

`CC(C)(C)NC(=O)[C@@H]1CN(Cc2cccnc2)CCN1C[C@@H](O)C[C@@H](Cc1ccccc1)C(=O)N[C@H]1c2ccccc2C[C@H]1O.O` gave an AUC of 12.5 µM·h.

target: T1, Human immunodeficiency virus type 1 protease (Human immunodeficiency virus 1, UniProt Q72874); experiment: Inhibitory activity against HIV-1 protease (V-18C strain); conditions: not given

Point of comparison: `O=C(N[C@H]1c2ccccc2OC[C@H]1O)[C@H](Cc1cccnc1)C[C@H](O)CN1CCN(Cc2ccc(-c3ccccc3)o2)C[C@H]1C(=O)NCC(F)(F)F`, IC50 0.15 nM. Against it:
- O=C(N[C@H]1c2ccccc2OC[C@H]1O)[C@H](Cc1cccnc1)C[C@H](O)CN1CCN(Cc2ccn(-c3ccccc3)c2)C[C@H]1C(=O)NCC(F)(F)F — 17-fold higher, 2.49 nM

system: not listed separately; experiment: Cmax value determined in dog at a dose of 10 mg/kg by oral administration; assay type: ADME, organism-based, Canis lupus familiaris; parameters: dose 10 mg/kg, route oral; conditions: in vivo

Compound `O=C(N[C@H]1c2ccccc2OC[C@H]1O)[C@H](Cc1cccnc1)C[C@H](O)CN1CCN(Cc2ccn(-c3ccccc3)c2)C[C@H]1C(=O)NCC(F)(F)F` has a Cmax of 5.3 µM.

system: not listed separately; experiment: Cmax value determined in dog at a dose of 5 mg/kg by oral administration; assay type: ADME, organism-based, Canis lupus familiaris; parameters: dose 5 mg/kg, route oral; conditions: in vivo

Compound `O=C(N[C@H]1c2ccccc2OC[C@H]1O)[C@H](Cc1cccnc1)C[C@H](O)CN1CCN(Cc2ccc(-c3ccccc3)o2)C[C@H]1C(=O)NCC(F)(F)F` has a Cmax of 0.1 µM.

target: T1, Human immunodeficiency virus type 1 protease; experiment: Inhibitory activity against HIV-1 protease (K-60C strain); conditions: not given

Point of comparison: `O=C(N[C@H]1c2ccccc2OC[C@H]1O)[C@H](Cc1cccnc1)C[C@H](O)CN1CCN(Cc2ccn(-c3ccccc3)c2)C[C@H]1C(=O)NCC(F)(F)F`, IC50 2.7 nM. Against it:
- O=C(N[C@H]1c2ccccc2OC[C@H]1O)[C@H](Cc1cccnc1)C[C@H](O)CN1CCN(Cc2ccc(-c3ccccc3)o2)C[C@H]1C(=O)NCC(F)(F)F — 45-fold lower, 0.06 nM

system: MT4; experiment: Viral spread inhibitory concentration against HIV-1 strain V-18C in MT-4 human T-lymphoid cells; assay type: functional; conditions: read-out: CIC95

`O=C(N[C@H]1c2ccccc2OC[C@H]1O)[C@H](Cc1cccnc1)C[C@H](O)CN1CCN(Cc2ccn(-c3ccccc3)c2)C[C@H]1C(=O)NCC(F)(F)F` and `Cc1cccc(-n2ccc(CN3CCN(C[C@@H](O)C[C@@H](Cc4cccnc4)C(=O)N[C@H]4c5ccccc5OC[C@H]4O)[C@H](C(=O)NCC(F)(F)F)C3)c2)c1` cannot be ordered by IC95: at most 8 nM for the first, at most 8 nM for the second.

Going from `O=C(N[C@H]1c2ccccc2OC[C@H]1O)[C@H](Cc1cccnc1)C[C@H](O)CN1CCN(Cc2ccc(-c3ccccc3)o2)C[C@H]1C(=O)NCC(F)(F)F` to `CC(C)(C)NC(=O)[C@@H]1CN(Cc2cccnc2)CCN1C[C@@H](O)C[C@@H](Cc1ccccc1)C(=O)N[C@H]1c2ccccc2C[C@H]1O.O`, the IC95 rises from at most 8 nM to over 1000 nM.

target: T1, Human immunodeficiency virus type 1 protease; experiment: Inhibitory activity against HIV-1 protease (Q-60C strain); conditions: not given

In the case of `O=C(N[C@H]1c2ccccc2OC[C@H]1O)[C@H](Cc1cccnc1)C[C@H](O)CN1CCN(Cc2ccc(-c3ccccc3)o2)C[C@H]1C(=O)NCC(F)(F)F`, the IC50 is reported as 0.07 nM.

system: Human immunodeficiency virus 1; experiment: Viral spread inhibitory concentration against HIV-1 strain NL4-3 in MT-4 human T-lymphoid cells; assay type: functional; conditions: Human immunodeficiency virus 1, T-lymphoid; read-out: CIC95

Point of comparison: `O=C(N[C@H]1c2ccccc2OC[C@H]1O)[C@H](Cc1cccnc1)C[C@H](O)CN1CCN(Cc2ccn(-c3ccccc3C(F)(F)F)c2)C[C@H]1C(=O)NCC(F)(F)F`, IC95 38 nM. Against it:
- O=C(N[C@H]1c2ccccc2OC[C@H]1O)[C@H](Cc1cccnc1)C[C@H](O)CN1CCN(Cc2ccn(-c3ccccc3)c2)C[C@H]1C(=O)NCC(F)(F)F — 2.5-fold lower, 15 nM
- Cc1cccc(-n2ccc(CN3CCN(C[C@@H](O)C[C@@H](Cc4cccnc4)C(=O)N[C@H]4c5ccccc5OC[C@H]4O)[C@H](C(=O)NCC(F)(F)F)C3)c2)c1 — lower, ≤ 8 nM
- N#Cc1ccccc1-n1ccc(CN2CCN(C[C@@H](O)C[C@@H](Cc3cccnc3)C(=O)N[C@H]3c4ccccc4OC[C@H]3O)[C@H](C(=O)NCC(F)(F)F)C2)c1 — within 1.5-fold, 46 nM
- O=C(N[C@H]1c2ccccc2OC[C@H]1O)[C@H](Cc1cccnc1)C[C@H](O)CN1CCN(Cc2ccc(-c3ccccc3)o2)C[C@H]1C(=O)NCC(F)(F)F — lower, ≤ 8 nM
- CC(C)(C)NC(=O)[C@@H]1CN(Cc2cccnc2)CCN1C[C@@H](O)C[C@@H](Cc1ccccc1)C(=O)N[C@H]1c2ccccc2C[C@H]1O.O — within 1.5-fold, 50 nM

system: not listed separately; experiment: Area under curve determined in dog at a dose of 10 mg/kg by oral administration; assay type: ADME, organism-based, Canis lupus familiaris; parameters: dose 10 mg/kg, route oral; conditions: in vivo

For `O=C(N[C@H]1c2ccccc2OC[C@H]1O)[C@H](Cc1cccnc1)C[C@H](O)CN1CCN(Cc2ccn(-c3ccccc3)c2)C[C@H]1C(=O)NCC(F)(F)F`, the AUC was 7 µM·h.

system: not listed separately; experiment: Plasma clearance in human liver microsomes; assay type: ADME, Microsome; conditions: not given

Point of comparison: `O=C(N[C@H]1c2ccccc2OC[C@H]1O)[C@H](Cc1cccnc1)C[C@H](O)CN1CCN(Cc2ccn(-c3ccccc3)c2)C[C@H]1C(=O)NCC(F)(F)F`, CLint scaled 19.9 L/h/kg. Against it:
- O=C(N[C@H]1c2ccccc2OC[C@H]1O)[C@H](Cc1cccnc1)C[C@H](O)CN1CCN(Cc2ccc(-c3ccccc3)o2)C[C@H]1C(=O)NCC(F)(F)F — within 1.5-fold, 14.3 L/h/kg

target: Cytochrome P450 3A4 (Homo sapiens, UniProt P08684); experiment: In vitro inhibition of Cytochrome P450 3A4; assay type: ADME; conditions: not given
Sequence (P08684 whole entry): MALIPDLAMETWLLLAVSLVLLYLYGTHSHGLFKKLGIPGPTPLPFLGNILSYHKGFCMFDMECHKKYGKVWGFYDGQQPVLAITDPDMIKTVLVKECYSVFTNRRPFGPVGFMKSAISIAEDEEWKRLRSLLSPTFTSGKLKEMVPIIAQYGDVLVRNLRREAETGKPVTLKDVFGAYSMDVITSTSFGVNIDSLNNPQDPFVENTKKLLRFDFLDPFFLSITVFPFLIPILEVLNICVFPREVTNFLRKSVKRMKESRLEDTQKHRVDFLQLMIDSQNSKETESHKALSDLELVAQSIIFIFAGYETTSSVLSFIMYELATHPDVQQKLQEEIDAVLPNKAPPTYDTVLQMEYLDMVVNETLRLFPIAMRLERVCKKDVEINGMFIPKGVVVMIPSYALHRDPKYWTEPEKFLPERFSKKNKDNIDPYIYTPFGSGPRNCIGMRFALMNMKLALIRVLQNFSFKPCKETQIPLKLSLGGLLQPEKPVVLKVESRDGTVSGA

With `O=C(N[C@H]1c2ccccc2OC[C@H]1O)[C@H](Cc1cccnc1)C[C@H](O)CN1CCN(Cc2ccn(-c3ccccc3)c2)C[C@H]1C(=O)NCC(F)(F)F` the IC50 was 400 nM.

system: Human immunodeficiency virus 1; experiment: Viral spread inhibitory concentration against HIV-1 strain K-60C in MT-4 human T-lymphoid cells; assay type: functional; conditions: Human immunodeficiency virus 1, T-lymphoid; read-out: CIC95

Point of comparison: `O=C(N[C@H]1c2ccccc2OC[C@H]1O)[C@H](Cc1cccnc1)C[C@H](O)CN1CCN(Cc2ccn(-c3ccccc3C(F)(F)F)c2)C[C@H]1C(=O)NCC(F)(F)F`, IC95 500 nM. Against it:
- O=C(N[C@H]1c2ccccc2OC[C@H]1O)[C@H](Cc1cccnc1)C[C@H](O)CN1CCN(Cc2ccn(-c3ccccc3)c2)C[C@H]1C(=O)NCC(F)(F)F — 16-fold lower, 31 nM
- Cc1cccc(-n2ccc(CN3CCN(C[C@@H](O)C[C@@H](Cc4cccnc4)C(=O)N[C@H]4c5ccccc5OC[C@H]4O)[C@H](C(=O)NCC(F)(F)F)C3)c2)c1 — 8.1-fold lower, 62 nM
- N#Cc1ccccc1-n1ccc(CN2CCN(C[C@@H](O)C[C@@H](Cc3cccnc3)C(=O)N[C@H]3c4ccccc4OC[C@H]3O)[C@H](C(=O)NCC(F)(F)F)C2)c1 — 2-fold lower, 250 nM
- O=C(N[C@H]1c2ccccc2OC[C@H]1O)[C@H](Cc1cccnc1)C[C@H](O)CN1CCN(Cc2ccc(-c3ccccc3)o2)C[C@H]1C(=O)NCC(F)(F)F — lower, ≤ 8 nM
- CC(C)(C)NC(=O)[C@@H]1CN(Cc2cccnc2)CCN1C[C@@H](O)C[C@@H](Cc1ccccc1)C(=O)N[C@H]1c2ccccc2C[C@H]1O.O — higher, > 1000 nM

system: Canis familiaris; experiment: Cmax value determined in dog at a dose of 10 mg/kg by oral administration along with indinavir (10 mg/kg); conditions: in vivo

Work on `O=C(N[C@H]1c2ccccc2OC[C@H]1O)[C@H](Cc1cccnc1)C[C@H](O)CN1CCN(Cc2ccc(-c3ccccc3)o2)C[C@H]1C(=O)NCC(F)(F)F` yielded a Cmax of 6.1 µM.

system: not listed separately; experiment: Cmax value determined in dog at a dose of […] by oral administration along with […] (10 mg/kg); assay type: ADME, organism-based, Canis lupus familiaris; parameters: route oral; conditions: in vivo

For `CC(C)(C)NC(=O)[C@@H]1CN(Cc2cccnc2)CCN1C[C@@H](O)C[C@@H](Cc1ccccc1)C(=O)N[C@H]1c2ccccc2C[C@H]1O.O`, the Cmax was 11.4 µM.

target: T1, Human immunodeficiency virus type 1 protease; experiment: In vitro inhibition of HIV-1 protease (NL4-3 strain).; conditions: not given

Point of comparison: `O=C(N[C@H]1c2ccccc2OC[C@H]1O)[C@H](Cc1cccnc1)C[C@H](O)CN1CCN(Cc2ccn(-c3ccccc3C(F)(F)F)c2)C[C@H]1C(=O)NCC(F)(F)F`, IC50 1.32 nM. Against it:
- O=C(N[C@H]1c2ccccc2OC[C@H]1O)[C@H](Cc1cccnc1)C[C@H](O)CN1CCN(Cc2ccn(-c3ccccc3)c2)C[C@H]1C(=O)NCC(F)(F)F — 12-fold lower, 0.11 nM
- Cc1cccc(-n2ccc(CN3CCN(C[C@@H](O)C[C@@H](Cc4cccnc4)C(=O)N[C@H]4c5ccccc5OC[C@H]4O)[C@H](C(=O)NCC(F)(F)F)C3)c2)c1 — 13-fold lower, 0.1 nM
- N#Cc1ccccc1-n1ccc(CN2CCN(C[C@@H](O)C[C@@H](Cc3cccnc3)C(=O)N[C@H]3c4ccccc4OC[C@H]3O)[C@H](C(=O)NCC(F)(F)F)C2)c1 — 2.9-fold lower, 0.46 nM
